Assay results taken from patent US4652561A, “Naphtho[1,2-b]-1,4-thiazepinones” (Hoffmann-La Roche Inc., priority 1986, dated 1987).

Assays:
[1] = system: Guinea Pig Ileum; assay: Guinea pig ileum assay - tonic contraction (calcium channel blocking activity); details: inhibition of K^+ (80 mM) induced tonic contraction, 37° C.
Method: GUINEA PIG ILEUM ASSAY--TONIC CONTRACTION
Male guinea-pigs weighing from 300-400 grams were stunned and bled. The abdomen was opened and 10-15 cm of terminal ileum was carefully removed and cleaned and placed in Tyrode's Solution of the following composition: NaCl (8 g/l), KCl (0.2 g/l), MgCl2 (0.2 g/l.). CaCl2 (0.2 g/l). NaH2 PO4 (0.05 g/l), NaHCO3 (1.0 g/l) and Glucose (1 g/l). The solution was maintained at 37° C. and gassed with 95%O2 and 5%CO2. Portions of the ileum were placed over a glass rod, a shallow incision was made the length of the mesenteric attachment just severing the outer-longitudinal muscle layer. The longitudinal muscle was separated from the underlying circular muscle by gentle dissection (Rang, H. P. Annals of N.Y. Academy of Science Vol. 144, page 756, (1964)). The tissue was fixed at one end to a tissue holder, the other end was connected by a thread to a force transducer and suspended in a muscle bath containing Tyrode's Solution maintained at 37° C. and gassed with 95%O2 and 5%CO2. An initial tension of 500 mg was applied and the tissue allowed to equilibrate for 60 minutes prior to the start of the study. During this period the tissue was washed every 16 minutes. Each preparation, at 16 minute intervals, was challenged with KCl sufficient to yield a bath K^+ concentration of 80 mMK for 2 minutes, then washed with fresh solution. The 16 minute interval between K^+ challenges was maintained throughout the study. Upon stabilization of the responses to the K^+ challenge the test compound (potential calcium entry antagonist) was introduced into the bath 2 minutes prior to and during the 2 minute exposure to K^+ after which the bath was cleared and washed with fresh solution. Logarithmically increasing doses (up to 10^-4 M) of the potential antagonist were administered as the study progressed.
The measure of compound's ability to inhibit the tonic contraction of muscle is a measure of its activity as a calcium channel blocking agent.

[2] = system: SH rat; assay: Blood pressure lowering in the spontaneously hypertensive (SH) rat; type: in vivo; details: 50 mg/kg p.o.; for Duration: duration of SBP lowering
Method: BLOOD PRESSURE LOWERING IN THE SPONTANEOUSLY HYPERTENSIVE (SH) RAT
Six male SH rats were used for each test. Body weights were recorded. Six pre-drug control recordings of the systolic blood pressure (mmHg) were measured from the tails of the rats which were unanesthetized and restrained in holders. The rats were previously heated for 5-10 minutes at 32°-34° C. The systolic blood pressure was measured by an occlusion cuff.
The compounds were administered orally to the rats in a composition that included 5% compound and the remainder gum acacia. The blood pressure of the rats was measured over a period of hours following oral administration.
The measure of a compound's ability to decrease blood pressure, is a measure of its ability as an anti-hypertensive agent.

Row | Structure (SMILES) | IC50 [1] | Systolic Blood Pressure (SBP) in the SH rat, SBP (Δ mm Hg) [2] | Duration [2]
1 | COc1ccc([C@@H]2Sc3c(ccc4ccccc34)N(CCN(C)C)C(=O)[C@H]2OC(C)=O)cc1 (racemic) [H, (±)-trans-3-(acetyloxy)-2,3-dihydro-2-(4-methoxyphenyl)-5-[2-(dimethylamino)ethyl]naphtho[1,2-b]-1,4-thiazepin-4(5H)-one] | 46000 nM |  | 
2 | COc1ccc([C@@H]2Sc3c(ccc4ccccc34)N(CCN(C)C)C(=O)[C@H]2O)cc1 (racemic) [G, (±)-trans-2,3-dihydro-3-hydroxy-2-(4-methoxyphenyl)-5-[2-(dimethylamino)ethyl]naphtho[1,2-b]-1,4-thiazepin-4(5H)-one] | 63000 nM |  | 
3 | COc1ccc([C@@H]2Sc3c(ccc4ccccc34)N(CCN(C)C)C(=O)[C@@H]2OC(C)=O)cc1 (racemic) [D, (±)-cis-3-(acetyloxy)-2,3-dihydro-2-(4-methoxyphenyl)-5-[2-(dimethylamino)ethyl]naphtho[1,2-b]-1,4-thiazepin-4(5H)-one] | 230 nM |  | 
4 | COc1ccc([C@@H]2Sc3c(ccc4ccccc34)N(CCN(C)C)C(=O)[C@@H]2O)cc1 (racemic) [C, (±)-cis-5-[2-(dimethylamino)ethyl]-2,3-dihydro-3-hydroxy-2-(4-methoxyphenyl)naphtho[1,2-b]-1,4-thiazepin-4(5H)-one] | 520 nM |  | 
5 | COc1ccc([C@@H]2Sc3c(ccc4ccccc34)N(CCN(C)C)C(=O)[C@@H]2O)cc1 [B, (+)-cis-5-[2-(dimethylamino)ethyl]-2,3-dihydro-3-hydroxy-2-(4-methoxyphenyl)naphtho[1,2-b]-1,4-thiazepin-4(5H)-one] | 1100 nM | -63 ± 9 mm Hg | 24 h
6 | COc1ccc([C@@H]2Sc3c(ccc4ccccc34)N(CCN(C)C)C(=O)[C@@H]2OC(C)=O)cc1 [A, (+)-cis-3-(acetyloxy)-2,3-dihydro-2-(4-methoxyphenyl)-5-[2-(dimethylamino)ethyl]naphtho[1,2-b]-1,4-thiazepin-4(5H)-one] | 1300 nM | -67 ± 7 mm Hg | 19 h
7 | COc1ccc([C@@H]2Sc3c(ccc4ccccc34)N(CCN(C)C)C(=O)[C@@H]2O)cc1 [E, (-)-cis-2,3-dihydro-3-hydroxy-2-(4-methoxyphenyl)-5-[2-(dimethylamino)ethyl]naphtho[1,2-b]-1,4-thiazepin-4(5H)-one] | 56000 nM |  | 
